The values that follow come from patent US8110399B2, “Stem cells of the islets of langerhans and their use in treating diabetes mellitus” (The General Hospital Corporation, priority 1999, dated 2012).

In one assay the test system is nestin-positive NIPs. As to the kind of experiment: Intracellular Ca2+ concentration in single isolated NIPs. The class given is cell-based, human. As for the experimental part: The application of GLP-1 amide to single, isolated […] elevates levels of intracellular Ca^2+ concentration ([Ca^2+]i). Cells were plated onto gridded coverslips to permit subsequent immunohistochemical staining of the same cells to test for nestin expression.

A further assay relates to NIP cultures. As to the kind of experiment: Immunocytochemical detection of differentiation of NIPs. In kind it is cell-based, human. Conditions: for Idx-1 immunostaining / insulin immunostaining: NIP cultures expanded 7-10 days, then treated. How it is done: Nestin-positive pancreatic islet stem cells were analyzed for GLP-1R expression. Human islet tissue was obtained from the Juvenile Diabetes Research Center for Islet Transplantation, Harvard Medical School. NIPs were isolated as described previously (Zulewski, et al., 2001, Diabetes 50: 521). Briefly, islets were washed and cultured in RPMI 1640 medium containing serum, 11.1 mM glucose, antibiotics, sodium pyruvate, β-mercaptoethanol, and growth factors. Within several days, nestin-positive cells (identified immunocytochemically as described above) grew out from the islets. Later, these cells were cloned and expanded in medium containing 20 ng/ml of basic fibroblast growth factor and epidermal growth factor or 1000 units of recombinant human leukemia inhibitory factor. Incubation with GLP-1 was administered in the absence of serum and fresh peptide was added every 48 h without changing the medium.
Immunocytochemical detection of GLP-1R was performed using rabbit polyclonal antisera (Heller et al., supra) as follows. Cells cultured on Lab-Tek chamber slides (Nunc, Naperville, Ill.) or gridded coverslips (Bellco Glass, NJ) were fixed with 4% paraformaldehyde in PBS for 10 minutes at room temperature. After several rinses in PBS, cells were blocked with normal donkey serum for 30 minutes and incubated with primary antisera or pre-immune sera at 4° C. The following day, cells were rinsed with PBS and incubated with secondary antisera (donkey anti-rabbit and donkey anti-guinea pig) labeled with Cy-3 or Cy-2 for 1 hour at room temperature. After several washes, coverslips containing cells were mounted onto slides in mounting medium containing DAPI (Vector Laboratories, Burlingame, Calif.) which stains nuclei. Fluorescence images were obtained using a Zeiss epifluorescence microscope equipped with an Optronics TEC-470 CCD camera (Optronics Engineering, Goleta, Calif.) interfaced with a Powermac 7100. IP lab Spectrum software (Signal Analytics, Vienna, Va.) was used to acquire and analyze images.
NIPs were picked from islet cultures and expanded in growth medium containing bFGF plus EGF (passage 01) for 3-10 days (Zulewski et al., 2001 Diabetes 50: 521). In certain instances NIPOs that were expanded for 3-5 days were fixed and subjected to immunocytochemical detection of Nestin (Cy-3) and Insulin (Cy-2) as shown in FIG. 24A. […] Accordingly, treatment with Extendin-4 induced a 2- to 3-fold increase in insulin secretion (FIG. 25). However, in some culture wells, confluence alone was sufficient to initiate small amounts of insulin secretion.

The subject of assay [1] is partial pancreatectomy rat model of type 2 diabetes. Conditions: daily administration for 10 days post pancreatectomy; cited from earlier work.
Another assay concerns islet mass. In words: Islet mass after injection of GLP-1 into mice. The class given is in vivo. Conditions: in 48 hours.
The next assay relates to diabetic mice. Conditions: cited from earlier work.

As to `[La+3]` [La^3+], the “[Ca2+]i increase mediated by GLP-1” value with nestin-positive NIPs (extracellular La3+ 5 μM) was “inhibited”.
For the molecule `CCCCNC(=O)NS(=O)(=O)c1ccc(C)cc1` [tolbutamide], the “[Ca2+]i elevation” value in the assay with nestin-positive NIPs (tolbutamide 100 μM) was “stimulates [Ca^2+]i elevation”.
Take “Extendin (9-39): peptide, a specific antagonist of GLP-1 (GLP-1R antagonist)”: the “increase in [Ca2+]i mediated by GLP-1” value with nestin-positive NIPs (pretreatment of single isolated NIPs with antagonist) is on record as “prevents the increase”.
Regarding exendin-4 [Extendin-4], in the assay on NIP cultures, the Idx-1 immunostaining result is given as “Idx-1 positive” and the insulin immunostaining result is reported as “a subset of cells became insulin positive”. The development of diabetes result in assay [1] is “attenuated the development of diabetes”.
Take “glucagon-like peptide-1 (HDEFERHAEGTFTSDVSSYLEGQAAKEFIAWLVKGRG) [GLP-1, insulinotropic hormone glucagon-like peptide (GLP)-1 produced by the intestine]”: the “increase of islet mass” value in the assay on islet mass came out at 2 fold. Moreover, in the assay on nestin-positive NIPs (basal (5.6 mM) glucose), the “[Ca2+]i levels” value is “stimulates [Ca^2+]i levels”. In addition, the “[Ca2+]i levels” value with nestin-positive NIPs (high (20 mM) glucose) is reported as “ineffective”. In the assay with NIP cultures, the Idx-1 immunostaining entry is given as “Idx-1 positive” and the insulin immunostaining result is reported as “a subset of cells became insulin positive”. For the same molecule, the “nestin expression of the cultures” value with NIP cultures (cultures treated with GLP-1) is recorded as “overall decrease in nestin expression”. In the assay on diabetic mice, the blood sugar levels result was “effectively lowers their blood sugar levels” and the insulin secretion entry was “stimulates insulin secretion”.
